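Each compound was tested at five concentrations against cells in 96-well plates for 48 hours. Abbreviation: GI50, concentration required for 50% inhibition of growth. TGI marks complete inhibition of growth.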
Experiments:
Assay in all cases: NCI anticancer screen, dose series, 48 h
COLO 205 colon = test system: COLO 205 colon
IGROV1 ovarian = test system: IGROV1 ovarian
LOX IMVI melanoma = test system: LOX IMVI melanoma
M14 melanoma = test system: M14 melanoma
NCI-H522 lung = test system: NCI-H522 lung
RPMI-8226 leukemia = test system: RPMI-8226 leukemia
RXF 393 renal = test system: RXF 393 renal
SF-539 CNS = test system: SF-539 CNS
SK-MEL-2 melanoma = test system: SK-MEL-2 melanoma
SNB-19 CNS = test system: SNB-19 CNS

Structure (SMILES)	GI50 (COLO 205 colon) [µM]	TGI (COLO 205 colon) [µM]	GI50 (IGROV1 ovarian) [µM]	TGI (IGROV1 ovarian) [µM]	GI50 (LOX IMVI melanoma) [µM]	TGI (LOX IMVI melanoma) [µM]	GI50 (M14 melanoma) [µM]	TGI (M14 melanoma) [µM]	GI50 (NCI-H522 lung) [µM]	TGI (NCI-H522 lung) [µM]	GI50 (RPMI-8226 leukemia) [µM]	TGI (RPMI-8226 leukemia) [µM]	GI50 (RXF 393 renal) [µM]	TGI (RXF 393 renal) [µM]	GI50 (SF-539 CNS) [µM]	TGI (SF-539 CNS) [µM]	GI50 (SK-MEL-2 melanoma) [µM]	TGI (SK-MEL-2 melanoma) [µM]	GI50 (SNB-19 CNS) [µM]	TGI (SNB-19 CNS) [µM]
CC(=O)[CH-]C(C)=O.[CH2-]C.[CH2-]C.[Tl+3]	> 100	> 100	> 100	> 100	> 100	> 100	> 100	> 100	> 100	> 100	> 100	> 100	> 100	> 100	> 100	> 100	> 100	> 100	> 100	> 100
CC(=O)OC1COC(n2c(=S)n(-c3ccccc3)c(=O)c3cc(Br)ccc32)C(OC(C)=O)C1OC(C)=O (centres undefined)	–	> 100	–	> 100	–	> 100	–	> 100	–	> 100	–	> 100	–	66.6	–	77.7	–	> 100	–	77.3
CC(=O)NNc1nc(C)c(C(=O)NNC(=O)C(=O)Nc2nc3ccc([N+](=O)[O-])cc3s2)s1	–	> 100	–	> 83.7	–	> 100	–	> 100	–	61.4	–	> 80.5	–	> 95.6	–	> 100	–	> 100	–	> 100
CC(=O)[O-].CC(=O)[O-].CC(=O)[O-].CC(=O)[O-].[Mo+2].[Mo+2]	> 100	> 100	> 100	> 100	> 100	> 100	> 100	> 100	> 100	> 100	> 100	> 100	> 100	> 100	> 100	> 100	> 100	> 100	> 100	> 100
OC(c1ccc(Br)cc1)(c1cccs1)C1CC1 (centres undefined)	–	36.6	–	42.9	–	42.4	–	45.3	–	40.9	–	54.7	–	39.1	–	45.9	–	40.4	–	> 100
NC(=O)C1(N2CCCCC2)CCN(CCCC(=O)c2ccc(F)cc2)CC1	0.715	6.89	7.28	> 100	0.254	> 100	2.28	7.72	0.0965	–	0.208	> 100	2.32	7.38	1.42	13.6	0.0925	> 100	2.86	> 100
CSc1c(C)c(C)nn1-c1ccccc1	–	> 100	–	> 100	–	> 100	–	> 100	–	> 100	–	> 100	–	> 100	–	> 100	–	> 100	–	> 100
O=C(c1ccc2ccccc2c1)c1c(C(F)(F)F)n([O-])c2ccc(Cl)cc2[n+]1=O	1.34	2.73	0.334	1.06	0.195	0.375	1.64	3.05	1.61	3.02	0.373	1.66	0.425	1.4	1.58	2.92	1.74	3.2	1.69	3.07
C=CCSc1nc2ccccc2c(=O)n1Cc1ccco1	–	> 100	–	> 100	–	> 100	–	> 100	–	> 100	–	> 100	–	> 100	–	> 100	–	> 100	–	> 100
COCCOCCOCc1n(Cc2ccc3ccccc3n2)c2ccccc2[n+]1Cc1ccc2ccccc2c1	0.281	0.876	0.351	1.66	0.333	1.24	0.414	1.94	0.248	0.936	0.185	1.33	1.68	4.46	0.338	1.4	0.376	1.56	0.441	1.62
Cn1c([N+](=O)[O-])cnc1/C=C1\Oc2cc(Cl)ccc2C1=O	0.742	3.59	0.783	> 20.2	0.2	0.553	0.499	4.61	0.679	2.36	1.73	> 20.5	0.762	2.37	1.71	4.81	0.436	2	1.64	6.21
O=C1C(SCCO)=C(SCCO)C(=O)c2ccccc21	–	3.27	–	2.78	–	0.812	–	2.5	–	3.56	–	3.09	–	2.8	–	2.02	–	4.24	–	3.23
O=S1(=O)NCCCN1CCNc1nccc(-c2c(-c3cccc(O)c3)nc3sccn23)n1	0.581	27.4	11.3	64.4	2.46	24	0.366	15.5	14.6	80.7	35.9	> 87.5	5.17	38.4	33.5	> 100	2.57	9.66	> 92.5	> 100
C=C(CN1CCc2ccccc2C1)c1ccc(C(=O)Nc2ccccc2N)cc1	1.52	7.4	1.54	17.6	0.316	1.2	1.73	18.4	0.732	3.72	0.793	> 12.9	1.37	4.76	1.3	4.28	3.16	19.1	2.39	> 50
O=C(/C=C/c1ccccc1)CC(c1ccccc1)N1CCOCC1 (centres undefined)	2.45	5.64	2.14	5.78	0.371	1.36	1.79	3.41	4.1	20	1.98	5.21	1.61	3.03	2.24	5.98	26.5	66.9	9.8	21.9

Source: PubChem BioAssay (NCI)
